Measured values published in US11279733B2, “Peptide antibiotics” (priority 2017, dated 2022).
≈ marks a conversion by molar mass, not a printed value. Like-named read-outs stand apart in the source and are kept apart here. Positions of bridges follow the written chain, without caps; N, C: chain ends. Non-standard residues stand in square brackets, D forms with d. Residues, ends and D or L forms follow the SMILES beside them. *: point of attachment. Isonicotinoyl(2-Ph) = O=C(c1ccnc(-c2ccccc2)c1)*; Decanoyl(3R-OH) = CCCCCCC[C@@H](O)CC(=O)*; X9 = CCCCCC1CCC(C(=O)*)CC1; dDab = NCC[C@@H](N)C(=O)O; Dab = NCC[C@H](N)C(=O)O

Assays:
[1] = tested on: S. aureus ATCC 25923, MSSA; details: ATCC 25923
Procedure, shortened: (§1)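 Mid-log cultures grown in Mueller Hinton broth at 37° C were tested by 2-fold broth microdilution at 5×10^5 CFU/mL final. Compounds were dissolved in water and tested over a final range of 32 to 0.015 μg/mL.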

P. aeruginosa ATCC 27853 = details: ATCC 27853
Procedure, shortened: as §1

[2] = tested on: K. pneumoniae GN_102 PmxR; details: GN 102 PmxR
Procedure, shortened: as §1

[3] = tested on: K. pneumoniae GN_106, PmxR; details: GN 106, PmxR
Procedure, shortened: as §1

K. pneumoniae ATCC 13883 = details: ATCC 13883
Procedure, shortened: as §1

[4] = tested on: K. pneumoniae ATCC 700603, MDR; details: ATCC 700603
Procedure, shortened: as §1

E. coli ATCC 25922 = details: ATCC 25922
Procedure, shortened: as §1

A. baumannii GN_093 PmxR = details: GN 093 PmxR
Procedure, shortened: as §1

[5] = tested on: P. aeruginosa GN_105, PmxR; details: GN 105, PmxR
Procedure, shortened: as §1

A. baumannii ATCC 19606 = details: ATCC 19606
Procedure, shortened: as §1

[6] = tested on: P. aeruginosa GN_043, PmxR
Procedure, shortened: as §1

[7] = tested on: K. pneumoniae ATCC BAA-2146, NDM-1 pos; details: ATCC BAA-2146
Procedure, shortened: as §1

in vitro = details: human
Procedure, shortened: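 HK2 cells were seeded at 2000 per well in DMEM/F12 with 10% FBS and left to attach for 24 h at 37 °C, 5% CO2. They were then exposed for 24 h to 3-fold peptide dilutions starting from 600 μM solutions in quadruplicate. LDH release was read at 450 nm, and CC50 was fitted from dose-response curves.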

SMILES: CCCCCC1CCC(C(=O)N[C@H](CCN)C(=O)N[C@H]2CCNC(=O)[C@H]([C@@H](C)O)NC(=O)[C@H](CCN)NC(=O)[C@H](CCN)NC(=O)[C@H](CC(C)C)NC(=O)[C@@H](Cc3ccccc3)NC(=O)[C@H](CCN)NC2=O)CC1 (stereo partly drawn) [compound 6404, C11H21CO-D-Dab-cyc[L-Dab-L-Dab-D-Phe-L-Leu-L-Dab-L-Dab-L-Thr]] (X9-[dDab][Dab][Dab][dF]L[Dab][Dab]T; lactam 2-C)
- MIC S. aureus ATCC 25923, MSSA [1]: 8 µg/mL (≈ 7.68 µM)
- MIC P. aeruginosa ATCC 27853 (P. aeruginosa ATCC 27853): 0.25 µg/mL (≈ 0.24 µM)
- MIC K. pneumoniae GN_102 PmxR [2]: >32 µg/mL
- MIC K. pneumoniae GN_106, PmxR [3]: >32 µg/mL
- MIC K. pneumoniae ATCC 13883 (K. pneumoniae ATCC 13883): 16 µg/mL (≈ 15.4 µM)
- MIC K. pneumoniae ATCC 700603, MDR [4]: 0.5 µg/mL (≈ 0.48 µM)
- MIC E. coli ATCC 25922 (E. coli ATCC 25922): 1 µg/mL (≈ 0.959 µM)
- MIC A. baumannii GN_093 PmxR (A. baumannii GN_093 PmxR): >32 µg/mL
- MIC P. aeruginosa GN_105, PmxR [5]: 8 µg/mL (≈ 7.68 µM)
- MIC A. baumannii ATCC 19606 (A. baumannii ATCC 19606): 64 µg/mL (≈ 61.4 µM)
- MIC P. aeruginosa GN_043, PmxR ([6]; P. aeruginosa GN_043, PmxR): 32 µg/mL (≈ 30.7 µM)
- MIC K. pneumoniae ATCC BAA-2146, NDM-1 pos [7]: 1 µg/mL (≈ 0.959 µM)
- CC50 at 24 h (in vitro): 38 µM

SMILES: CC(C)C[C@@H]1NC(=O)[C@@H](Cc2ccccc2)NC(=O)[C@H](CCN)NC(=O)[C@@H](NC(=O)[C@@H](CCN)NC(=O)c2ccnc(-c3ccccc3)c2)CCNC(=O)[C@H]([C@@H](C)O)NC(=O)[C@H](CCN)NC(=O)[C@H](CCN)NC1=O [compound 6405, 3Phe4-PyCO-D-Dab-cyc[L-Dab-L-Dab-D-Phe-L-Leu-L-Dab-L-Dab-L-Thr]] ({Isonicotinoyl(2-Ph)}-[dDab][Dab][Dab][dF]L[Dab][Dab]T; lactam 2-C)
- MIC S. aureus ATCC 25923, MSSA [1]: >32 µg/mL
- MIC P. aeruginosa ATCC 27853 (P. aeruginosa ATCC 27853): 8 µg/mL (≈ 7.67 µM)
- MIC K. pneumoniae GN_102 PmxR [2]: >32 µg/mL
- MIC K. pneumoniae GN_106, PmxR [3]: >32 µg/mL
- MIC K. pneumoniae ATCC 13883 (K. pneumoniae ATCC 13883): >64 µg/mL
- MIC K. pneumoniae ATCC 700603, MDR [4]: >64 µg/mL
- MIC E. coli ATCC 25922 (E. coli ATCC 25922): >64 µg/mL
- MIC A. baumannii GN_093 PmxR (A. baumannii GN_093 PmxR): >32 µg/mL
- MIC P. aeruginosa GN_105, PmxR [5]: >32 µg/mL
- MIC A. baumannii ATCC 19606 (A. baumannii ATCC 19606): >64 µg/mL
- MIC P. aeruginosa GN_043, PmxR ([6]; P. aeruginosa GN_043, PmxR): >32 µg/mL
- MIC K. pneumoniae ATCC BAA-2146, NDM-1 pos [7]: >64 µg/mL
- CC50 at 24 h (in vitro): > 300 µM

SMILES: CCCCCCC[C@@H](O)CC(=O)N[C@H](CCN)C(=O)N[C@H]1CCNC(=O)[C@H](CCCNC(=N)N)NC(=O)[C@H](CCN)NC(=O)[C@H](CCN)NC(=O)[C@H](CC(C)C)NC(=O)[C@@H](Cc2ccccc2)NC(=O)[C@H](CCN)NC1=O [compound 6508, 3(R)OH-nC9CO-D-Dab-cyc[L-Dab-L-Dab-D-Phe-L-Leu-L-Dab-L-Dab-L-Arg]] ({Decanoyl(3R-OH)}-[dDab][Dab][Dab][dF]L[Dab][Dab]R; lactam 2-C)
- MIC S. aureus ATCC 25923, MSSA [1]: >32 µg/mL
- MIC P. aeruginosa ATCC 27853 (P. aeruginosa ATCC 27853): 2 µg/mL (≈ 1.84 µM)
- MIC K. pneumoniae GN_102 PmxR [2]: >32 µg/mL
- MIC K. pneumoniae GN_106, PmxR [3]: >32 µg/mL
- MIC K. pneumoniae ATCC 13883 (K. pneumoniae ATCC 13883): >64 µg/mL
- MIC K. pneumoniae ATCC 700603, MDR [4]: 16 µg/mL (≈ 14.7 µM)
- MIC E. coli ATCC 25922 (E. coli ATCC 25922): 16 µg/mL (≈ 14.7 µM)
- MIC A. baumannii GN_093 PmxR (A. baumannii GN_093 PmxR): >32 µg/mL
- MIC P. aeruginosa GN_105, PmxR [5]: 32 µg/mL (≈ 29.4 µM)
- MIC A. baumannii ATCC 19606 (A. baumannii ATCC 19606): >64 µg/mL
- MIC P. aeruginosa GN_043, PmxR ([6]; polymyxin-resistant): >32 µg/mL
- MIC K. pneumoniae ATCC BAA-2146, NDM-1 pos [7]: >64 µg/mL
- CC50 at 24 h (in vitro): 142 µM
